Bridge positions count the residues as written; N and C are the ends. Square brackets hold non-standard residues; d marks the D form. Peptide text beside a SMILES is read from it. Bip = N[C@@H](Cc1ccc(-c2ccccc2)cc1)C(=O)O; Phe(3-CN) = N#Cc1cccc(C[C@H](N)C(=O)O)c1; Phe(3-Cl) = N[C@@H](Cc1cccc(Cl)c1)C(=O)O; Phe(3-OMe) = COc1cccc(C[C@H](N)C(=O)O)c1; Phe(4-CN) = N#Cc1ccc(C[C@H](N)C(=O)O)cc1; Phe(3-F) = N[C@@H](Cc1cccc(F)c1)C(=O)O; Phe(3-Me) = Cc1cccc(C[C@H](N)C(=O)O)c1; Cha = N[C@@H](CC1CCCCC1)C(=O)O; Cit = NC(=O)NCCC[C@H](N)C(=O)O; Pip = O=C(O)[C@@H]1CCCCN1; NMeA = CN[C@@H](C)C(=O)O; Aze = O=C(O)[C@@H]1CCN1; Dab = NCC[C@H](N)C(=O)O
Target: T1, PE-labeled human PD-L1-Ig binding to Jurkat cell line over-expressing human PD-1 (Jurkat-PD-1) (Homo sapiens, UniProt Q15116)
T1 construct: expressed in transfected cells; host or cells: Jurkat
Assay: Jurkat-PD-1 Cell Binding High-Content Screening Assay (CBA): Method 1
Conditions: Jurkat-hPD-1 cells, PE-labeled PD-L1-Ig 20 nM final; read-out: Jurkat HPDL1 PD1 IC50 (uM) (Method 1)

T1 sequence (Q15116 25-288): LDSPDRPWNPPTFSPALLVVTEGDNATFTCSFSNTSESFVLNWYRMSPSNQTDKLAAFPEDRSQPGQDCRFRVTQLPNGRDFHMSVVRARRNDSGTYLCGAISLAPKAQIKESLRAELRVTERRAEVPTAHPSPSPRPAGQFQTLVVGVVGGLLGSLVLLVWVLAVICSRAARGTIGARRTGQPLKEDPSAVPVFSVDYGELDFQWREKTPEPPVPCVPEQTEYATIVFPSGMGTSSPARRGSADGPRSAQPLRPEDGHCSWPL

IC50	SMILES
0.32 µM	CC(C)C[C@@H]1NC(=O)[C@H](CCN)NC(=O)[C@@H](CC(C)C)NC(=O)[C@@H]2CCN2C(=O)[C@H](C(C)C)NC(=O)[C@H](Cc2ccc(-c3ccccc3)cc2)NC(=O)[C@H](C(C)C)NC(=O)[C@H](Cc2c[nH]c3ccccc23)NC(=O)[C@H](CC(=O)O)NC(=O)[C@H](Cc2ccc(O)cc2)NC(=O)[C@H](CC(N)=O)NC(=O)CSC[C@@H](C(=O)N[C@@H](C)C(N)=O)NC(=O)[C@H]([C@@H](C)O)NC(=O)[C@H](C(C)C)NC1=O [Compound 1297] ({CH2CO}-NYDWV[Bip]V[Aze][dL][Dab]LVTCA-NH2; thioether N-14)
0.03 µM	CC(C)C[C@@H]1NC(=O)[C@H](CCN)NC(=O)[C@@H](CC(C)C)NC(=O)[C@@H]2CCCCN2C(=O)[C@H](C(C)C)NC(=O)[C@H](Cc2ccc(-c3ccccc3)cc2)NC(=O)[C@H](C(C)C)NC(=O)[C@H](Cc2c[nH]c3ccccc23)NC(=O)[C@H](CC(=O)O)NC(=O)[C@H](Cc2ccc(O)cc2)NC(=O)[C@H](CC(N)=O)NC(=O)CSC[C@@H](C(=O)N[C@@H](C)C(N)=O)NC(=O)[C@H]([C@@H](C)O)NC(=O)[C@H](C(C)C)NC1=O [Compound 1298] ({CH2CO}-NYDWV[Bip]V[Pip][dL][Dab]LVTCA-NH2; thioether N-14)
0.02 µM	CC(C)C[C@@H]1NC(=O)[C@H](CCCCN)NC(=O)[C@@H](CC(C)C)NC(=O)[C@H](C)N(C)C(=O)[C@H](C(C)C)NC(=O)[C@H](Cc2ccc(-c3ccccc3)cc2)NC(=O)[C@H](C(C)C)NC(=O)[C@H](Cc2c[nH]c3ccccc23)NC(=O)[C@H](CC(=O)O)NC(=O)[C@H](Cc2ccc(O)cc2)NC(=O)[C@H](CC(N)=O)NC(=O)CSC[C@@H](C(=O)N[C@@H](C)C(N)=O)NC(=O)[C@H]([C@@H](C)O)NC(=O)[C@H](C(C)C)NC1=O [Compound 1299] ({CH2CO}-NYDWV[Bip]V[NMeA][dL]KLVTCA-NH2; thioether N-14)
0.02 µM	CC(C)C[C@@H]1NC(=O)[C@H](CCN)NC(=O)[C@@H](CC(C)C)NC(=O)[C@H](C)N(C)C(=O)[C@H]([C@@H](C)O)NC(=O)[C@H](Cc2ccc(-c3ccccc3)cc2)NC(=O)[C@H](C(C)C)NC(=O)[C@H](Cc2c[nH]c3ccccc23)NC(=O)[C@H](CC(=O)O)NC(=O)[C@H](Cc2ccc(O)cc2)NC(=O)[C@H](CC(N)=O)NC(=O)CSC[C@@H](C(=O)N[C@@H](C)C(N)=O)NC(=O)[C@H]([C@@H](C)O)NC(=O)[C@H](C(C)C)NC1=O [Compound 1300] ({CH2CO}-NYDWV[Bip]T[NMeA][dL][Dab]LVTCA-NH2; thioether N-14)
0.06 µM	CC(C)C[C@@H]1NC(=O)[C@H](CCN)NC(=O)[C@@H](CC(C)C)NC(=O)[C@H](C)N(C)C(=O)[C@H](CCC(N)=O)NC(=O)[C@H](Cc2ccc(-c3ccccc3)cc2)NC(=O)[C@H](C(C)C)NC(=O)[C@H](Cc2c[nH]c3ccccc23)NC(=O)[C@H](CC(=O)O)NC(=O)[C@H](Cc2ccc(O)cc2)NC(=O)[C@H](CC(N)=O)NC(=O)CSC[C@@H](C(=O)N[C@@H](C)C(N)=O)NC(=O)[C@H]([C@@H](C)O)NC(=O)[C@H](C(C)C)NC1=O [Compound 1301] ({CH2CO}-NYDWV[Bip]Q[NMeA][dL][Dab]LVTCA-NH2; thioether N-14)
0.02 µM	CC(C)C[C@@H]1NC(=O)[C@H](CCN)NC(=O)[C@@H](CC(C)C)NC(=O)[C@H](C)N(C)C(=O)[C@H](Cc2cnc[nH]2)NC(=O)[C@H](Cc2ccc(-c3ccccc3)cc2)NC(=O)[C@H](C(C)C)NC(=O)[C@H](Cc2c[nH]c3ccccc23)NC(=O)[C@H](CC(=O)O)NC(=O)[C@H](Cc2ccc(O)cc2)NC(=O)[C@H](CC(N)=O)NC(=O)CSC[C@@H](C(=O)N[C@@H](C)C(N)=O)NC(=O)[C@H]([C@@H](C)O)NC(=O)[C@H](C(C)C)NC1=O [Compound 1302] ({CH2CO}-NYDWV[Bip]H[NMeA][dL][Dab]LVTCA-NH2; thioether N-14)
0.07 µM	CC(C)C[C@@H]1NC(=O)[C@H](CCN)NC(=O)[C@@H](CC(C)C)NC(=O)[C@H](C)N(C)C(=O)[C@H](Cc2ccc(O)cc2)NC(=O)[C@H](Cc2ccc(-c3ccccc3)cc2)NC(=O)[C@H](C(C)C)NC(=O)[C@H](Cc2c[nH]c3ccccc23)NC(=O)[C@H](CC(=O)O)NC(=O)[C@H](Cc2ccc(O)cc2)NC(=O)[C@H](CC(N)=O)NC(=O)CSC[C@@H](C(=O)N[C@@H](C)C(N)=O)NC(=O)[C@H]([C@@H](C)O)NC(=O)[C@H](C(C)C)NC1=O [Compound 1303] ({CH2CO}-NYDWV[Bip]Y[NMeA][dL][Dab]LVTCA-NH2; thioether N-14)
0.02 µM	CC(C)C[C@H]1NC(=O)[C@H](C)N(C)C(=O)[C@H](CCCNC(N)=O)NC(=O)[C@H](Cc2ccc(-c3ccccc3)cc2)NC(=O)[C@H](C(C)C)NC(=O)[C@H](Cc2c[nH]c3ccccc23)NC(=O)[C@H](CC(=O)O)NC(=O)[C@H](Cc2ccc(O)cc2)NC(=O)[C@H](CC(N)=O)NC(=O)CSC[C@@H](C(=O)N[C@@H](C)C(N)=O)NC(=O)[C@H]([C@@H](C)O)NC(=O)[C@H](C(C)C)NC(=O)[C@H](CC2CCCCC2)NC(=O)[C@H](CCCNC(=N)N)NC1=O [Compound 1304] ({CH2CO}-NYDWV[Bip][Cit][NMeA][dL]R[Cha]VTCA-NH2; thioether N-14)
0.2 µM	Cc1cccc(C[C@@H]2NC(=O)[C@H](CC(N)=O)NC(=O)CSC[C@@H](C(=O)N[C@@H](C)C(N)=O)NC(=O)[C@H]([C@@H](C)O)NC(=O)[C@H](C(C)C)NC(=O)[C@H](CC(C)C)NC(=O)[C@H](CCN)NC(=O)[C@@H](CC(C)C)NC(=O)[C@H](C)N(C)C(=O)[C@H](CCCNC(=N)N)NC(=O)[C@H](Cc3ccc(-c4ccccc4)cc3)NC(=O)[C@H](C(C)C)NC(=O)[C@H](Cc3c[nH]c4ccccc34)NC(=O)[C@H](CC(=O)O)NC2=O)c1 [Compound 1305] ({CH2CO}-N[Phe(3-Me)]DWV[Bip]R[NMeA][dL][Dab]LVTCA-NH2; thioether N-14)
0.05 µM	CC(C)C[C@@H]1NC(=O)[C@H](CCN)NC(=O)[C@@H](CC(C)C)NC(=O)[C@H](C)N(C)C(=O)[C@H](CCCNC(=N)N)NC(=O)[C@H](Cc2ccc(-c3ccccc3)cc2)NC(=O)[C@H](C(C)C)NC(=O)[C@H](Cc2c[nH]c3ccccc23)NC(=O)[C@H](CC(=O)O)NC(=O)[C@H](Cc2ccc(C#N)cc2)NC(=O)[C@H](CC(N)=O)NC(=O)CSC[C@@H](C(=O)N[C@@H](C)C(N)=O)NC(=O)[C@H]([C@@H](C)O)NC(=O)[C@H](C(C)C)NC1=O [Compound 1306] ({CH2CO}-N[Phe(4-CN)]DWV[Bip]R[NMeA][dL][Dab]LVTCA-NH2; thioether N-14)
0.1 µM	COc1cccc(C[C@@H]2NC(=O)[C@H](CC(N)=O)NC(=O)CSC[C@@H](C(=O)N[C@@H](C)C(N)=O)NC(=O)[C@H]([C@@H](C)O)NC(=O)[C@H](C(C)C)NC(=O)[C@H](CC(C)C)NC(=O)[C@H](CCN)NC(=O)[C@@H](CC(C)C)NC(=O)[C@H](C)N(C)C(=O)[C@H](CCCNC(=N)N)NC(=O)[C@H](Cc3ccc(-c4ccccc4)cc3)NC(=O)[C@H](C(C)C)NC(=O)[C@H](Cc3c[nH]c4ccccc34)NC(=O)[C@H](CC(=O)O)NC2=O)c1 [Compound 1307] ({CH2CO}-N[Phe(3-OMe)]DWV[Bip]R[NMeA][dL][Dab]LVTCA-NH2; thioether N-14)
0.11 µM	CC(C)C[C@@H]1NC(=O)[C@H](CCN)NC(=O)[C@@H](CC(C)C)NC(=O)[C@H](C)N(C)C(=O)[C@H](CCCNC(=N)N)NC(=O)[C@H](Cc2ccc(-c3ccccc3)cc2)NC(=O)[C@H](C(C)C)NC(=O)[C@H](Cc2c[nH]c3ccccc23)NC(=O)[C@H](CC(=O)O)NC(=O)[C@H](Cc2cccc(C#N)c2)NC(=O)[C@H](CC(N)=O)NC(=O)CSC[C@@H](C(=O)N[C@@H](C)C(N)=O)NC(=O)[C@H]([C@@H](C)O)NC(=O)[C@H](C(C)C)NC1=O [Compound 1308] ({CH2CO}-N[Phe(3-CN)]DWV[Bip]R[NMeA][dL][Dab]LVTCA-NH2; thioether N-14)
0.09 µM	CC(C)C[C@@H]1NC(=O)[C@H](CCN)NC(=O)[C@@H](CC(C)C)NC(=O)[C@H](C)N(C)C(=O)[C@H](CCCNC(=N)N)NC(=O)[C@H](Cc2ccc(-c3ccccc3)cc2)NC(=O)[C@H](C(C)C)NC(=O)[C@H](Cc2c[nH]c3ccccc23)NC(=O)[C@H](CC(=O)O)NC(=O)[C@H](Cc2cccc(F)c2)NC(=O)[C@H](CC(N)=O)NC(=O)CSC[C@@H](C(=O)N[C@@H](C)C(N)=O)NC(=O)[C@H]([C@@H](C)O)NC(=O)[C@H](C(C)C)NC1=O [Compound 1309] ({CH2CO}-N[Phe(3-F)]DWV[Bip]R[NMeA][dL][Dab]LVTCA-NH2; thioether N-14)
0.11 µM	CC(C)C[C@@H]1NC(=O)[C@H](CCN)NC(=O)[C@@H](CC(C)C)NC(=O)[C@H](C)N(C)C(=O)[C@H](CCCNC(N)=O)NC(=O)[C@H](Cc2ccc(-c3ccccc3)cc2)NC(=O)[C@H](C(C)C)NC(=O)[C@H](Cc2c[nH]c3ccccc23)NC(=O)[C@H](CC(=O)O)NC(=O)[C@H](Cc2cccc(Cl)c2)NC(=O)[C@H](CC(N)=O)NC(=O)CSC[C@@H](C(=O)N[C@@H](C)C(N)=O)NC(=O)[C@H]([C@@H](C)O)NC(=O)[C@H](C(C)C)NC1=O [Compound 1310] ({CH2CO}-N[Phe(3-Cl)]DWV[Bip][Cit][NMeA][dL][Dab]LVTCA-NH2; thioether N-14)
0.05 µM	Cc1cccc(C[C@@H]2NC(=O)[C@H](CC(N)=O)NC(=O)CSC[C@@H](C(=O)N[C@@H](C)C(N)=O)NC(=O)[C@H]([C@@H](C)O)NC(=O)[C@H](C(C)C)NC(=O)[C@H](CC(C)C)NC(=O)[C@H](CCN)NC(=O)[C@@H](CC(C)C)NC(=O)[C@H](C)N(C)C(=O)[C@H](CCCNC(N)=O)NC(=O)[C@H](Cc3ccc(-c4ccccc4)cc3)NC(=O)[C@H](C(C)C)NC(=O)[C@H](Cc3c[nH]c4ccccc34)NC(=O)[C@H](CC(=O)O)NC2=O)c1 [Compound 1311] ({CH2CO}-N[Phe(3-Me)]DWV[Bip][Cit][NMeA][dL][Dab]LVTCA-NH2; thioether N-14)
0.05 µM	CC(C)C[C@@H]1NC(=O)[C@H](CCN)NC(=O)[C@@H](CC(C)C)NC(=O)[C@H](C)N(C)C(=O)[C@H](CCCNC(N)=O)NC(=O)[C@H](Cc2ccc(-c3ccccc3)cc2)NC(=O)[C@H](C(C)C)NC(=O)[C@H](Cc2c[nH]c3ccccc23)NC(=O)[C@H](CC(=O)O)NC(=O)[C@H](Cc2ccc(C#N)cc2)NC(=O)[C@H](CC(N)=O)NC(=O)CSC[C@@H](C(=O)N[C@@H](C)C(N)=O)NC(=O)[C@H]([C@@H](C)O)NC(=O)[C@H](C(C)C)NC1=O [Compound 1312] ({CH2CO}-N[Phe(4-CN)]DWV[Bip][Cit][NMeA][dL][Dab]LVTCA-NH2; thioether N-14)

From patent US20240409585A1, “MACROCYCLIC IMMUNOMODULATORS” (priority 2021, published 2024)
